These results are taken from article PMC5493393 (Journal of medicinal chemistry, 2017).

Experiment [1] has as its system KOR M142A mutant. As to the kind of experiment: 3H-U69593 binding at KOR single point mutant M142A. As to conditions: vs wild type KOR.
The target in experiment [2] is T1, KOR (Homo sapiens, UniProt P41145). Format: binding. As to conditions: for LE (Ligand Efficiency): LE = 1.4(−logKi)/N.
For experiment [3], the target named is T1, KOR. As to the kind of experiment: KOR-arrestin translocation. It is filed as cell-based. The note with it: for agonist activity in β-arrestin recruitment: agonist mode, normalized to Sal A. For orientation: Arrestin recruitment assays detect the binding of arrestin to an activated receptor.
The target of experiment [4] is DOR (Homo sapiens, UniProt P41143). As to the kind of experiment: Gi-mediated inhibition of cAMP production at DOR. Format: cell-based. The note with it: relative to KOR agonist activity; Figure S1.
Experiment [5] addresses MOR (Homo sapiens, UniProt P35372). The experiment is described as follows: Gi-mediated inhibition of cAMP production at MOR. The note with it: relative to KOR agonist activity; Figure S1. Format: cell-based.
The test system of experiment [6] is KOR H291A mutant. As to the kind of experiment: 3H-U69593 binding at KOR single point mutant H291A. As to conditions: vs wild type KOR.
Experiment [7] deals with KOR I294A mutant. As to the kind of experiment: 3H-U69593 binding at KOR single point mutant I294A. As to conditions: vs wild type KOR.
The target in experiment [8] is T1, KOR. As to the kind of experiment: Gi-mediated inhibition of cAMP production. Format: cell-based. On the technique in general: Changes in cAMP serve as a functional read-out for many G protein-coupled receptors.
Setting [9] is: inhibition of Sal A mediated Gi activation.

Each structure is given as a SMILES string. Where only a bound is given, the exact number is not on record here.

`Cc1c(C(=O)NCC(c2ccco2)N2CCCC2)oc2ccc(Cl)cc12` (stereo not drawn) [Compound 72]: the “effect of M142A mutation on ligand binding (fold reduction of binding vs WT KOR)” value (“effect … (fold reduction of binding vs WT KOR)” below) in experiment [1] is listed as “enhancing binding”.
Consider `O=C(NC[C@@H](c1ccco1)N1CCCC1)c1cc2ccccc2o1` [Compound 71], for which the “LE (Ligand Efficiency)” value in experiment [2] (Table 2 derivatives) is 0.35 kcal/mol per heavy atom.
Turning to `CC(c1cccc(O)c1)N(C)Cc1nccn1CC(F)(F)F` (stereo not drawn) [Compound 28], the “agonist activity in β-arrestin recruitment” value in experiment [3] is “measurable β-arrestin recruitment activity”. Further, the “%Inhib ± SEM (inhibition of 3H-U69593 radioligand binding)” value in experiment [2] (Table 1 VLS hits, 50 μM compound, SEM, N=3) came to 96.9 ± 1.2%. Moreover, in experiment [4], the “reduction of agonist activity at DOR” value is given as “at least 50%”. Further, the “reduction of agonist activity at MOR” value in experiment [5] was “at least 50%”.
As to `COc1ccc(CNCC(O)c2cccc(O)c2)cc1Br` (stereo not drawn) [Compound 67], the “effect … (fold reduction of binding vs WT KOR)” value in experiment [1] is given as “at least 10 fold”. Also, the “effect of H291A mutation on ligand affinity (fold reduction vs WT KOR)” value in experiment [6] is on record as “more than 10 fold”. Also, the “effect of I294A mutation on ligand affinity (fold reduction vs WT KOR)” value in experiment [7] is recorded as “more than 10 fold”.
In the case of `Cc1ccc(C(CNC(=O)c2oc3ccccc3c2C)N2CCCC2)o1` (stereo not drawn) [Compound 69], the “effect … (fold reduction of binding vs WT KOR)” value in experiment [1] is listed as “enhancing binding”.
`CC(NCc1nccn1C)c1cccc(O)c1` (stereo not drawn) [Compound 81]: the “agonist activity in β-arrestin recruitment” value in experiment [3] is “minimal β-arrestin recruitment”. For the same molecule, the “%Inhib (inhibition of 3H-U69593 radioligand binding)” value in experiment [2] (Table 2 derivatives, 50 μM compound, N=3) turned out to be 78.81%. Further, the “reduction of agonist activity at DOR” value in experiment [4] is recorded as no less than 70%. For the same molecule, in experiment [5], the “reduction of agonist activity at MOR” value is listed as no less than 70%.
In the case of `COC(=O)[C@@H]1C[C@H](OC(C)=O)C(=O)[C@H]2[C@@]1(C)CC[C@H]1C(=O)O[C@H](c3ccoc3)C[C@]21C` [Sal A, salvinorin A, reference compound], the “effect … (fold reduction of binding vs WT KOR)” value in experiment [1] is given as “at least 10 fold”. In addition, in experiment [6], the “effect of H291A mutation on ligand affinity (fold reduction vs WT KOR)” value was “not affecting binding”. Moreover, the “effect of I294A mutation on ligand affinity (fold reduction vs WT KOR)” value in experiment [7] was “not affecting binding”.
In the case of `Oc1cccc(C(O)CNCc2ccc(Cl)cc2Cl)c1` (stereo not drawn) [Compound 64], the “functional profile, arrestin versus G-protein assays” value in experiment [8] (comparison of β-arrestin (Tango) and Gi-cAMP assays) is “balanced antagonist”. Further, in experiment [8] (setting [9]), the Schild slope came out at 1.15 ± 0.06 and the “pA2 (Schild analysis)” value is on record as 6.78 ± 0.11. For the same molecule, in experiment [1], the “effect … (fold reduction of binding vs WT KOR)” value is given as “at least 10 fold”. The “antagonist activity: inhibition of Sal A-induced β-arrestin recruitment” value in experiment [3] (antagonist mode, 30 nM Sal A, normalized to 5-GNTI) is listed as “completely inhibiting”. In addition, the “LE (Ligand Efficiency)” value in experiment [2] (Table 2 derivatives) was determined as 0.47 kcal/mol per heavy atom. Moreover, the “effect of H291A mutation on ligand affinity (fold reduction vs WT KOR)” value in experiment [6] was “more than 10 fold”. For the same molecule, the “effect of I294A mutation on ligand affinity (fold reduction vs WT KOR)” value in experiment [7] was “more than 10 fold”.
With `Cc1ccc(C(CNC(=O)c2oc3ccc(F)cc3c2C)N2CCCC2)o1` (stereo not drawn) [Compound 70], the “effect … (fold reduction of binding vs WT KOR)” value in experiment [1] was “enhancing binding”. In experiment [2] (Table 2 derivatives), the “LE (Ligand Efficiency)” value stood at 0.32 kcal/mol per heavy atom.
With `CCN(Cc1csc(C)n1)C(C)c1cccc(O)c1` (stereo not drawn) [Compound 87], in experiment [6], the “effect of H291A mutation on ligand affinity (fold reduction vs WT KOR)” value is “more than 10 fold”. The “effect of I294A mutation on ligand affinity (fold reduction vs WT KOR)” value in experiment [7] is on record as “more than 10 fold”.
In the case of `COc1ccc2oc(C(=O)NCC(c3ccco3)N3CCCC3)c(C)c2c1` (stereo not drawn) [Compound 73], the “LE (Ligand Efficiency)” value in experiment [2] (Table 2 derivatives) was 0.32 kcal/mol per heavy atom.
